In publication PMC9321742 (Viruses, 2022):
Several values for one entry are separate records, joined by “and”; a condition that tells them apart may be missing. Identical values can stand only once.

Tested on: SARS-CoV-2 B.1 (D614G) wild-type
Type: cell-based

## O=c1nc(NO)ccn1[C@@H]1O[C@H](CO)[C@@H](O)[C@H]1O [EIDD-1931]
  Increase in antiviral activity by the P-gp inhibitor: negligible
read-out: IC50 WT Mean ± SD
  IC50: 1.1 µM and 1.5 µM
